Results taken from patent US12172983B2, “EGFR inhibitors” (Blueprint Medicines Corporation, priority 2019, dated 2024).
Read-outs that look alike come from different tables or passages of the source.

What was measured:
EGFR (L858R T790M C797S) = biological target: T1, EGFR (L858R T790M C797S) (Homo sapiens, UniProt P00533, C797S/L858R/T790M); assay: Biochemical EGFR inhibition assay (Caliper mobility shift), EGFR LRTMCS mutant; conditions: inhibitory activity against EGFR LRTMCS mutant; apparent IC50; read-out: Ext Enz LRTMCS
T1 construct: purchased SignalChem E10-122VG
T1 sequence (P00533 25-1210 T790M/C797S/L858R): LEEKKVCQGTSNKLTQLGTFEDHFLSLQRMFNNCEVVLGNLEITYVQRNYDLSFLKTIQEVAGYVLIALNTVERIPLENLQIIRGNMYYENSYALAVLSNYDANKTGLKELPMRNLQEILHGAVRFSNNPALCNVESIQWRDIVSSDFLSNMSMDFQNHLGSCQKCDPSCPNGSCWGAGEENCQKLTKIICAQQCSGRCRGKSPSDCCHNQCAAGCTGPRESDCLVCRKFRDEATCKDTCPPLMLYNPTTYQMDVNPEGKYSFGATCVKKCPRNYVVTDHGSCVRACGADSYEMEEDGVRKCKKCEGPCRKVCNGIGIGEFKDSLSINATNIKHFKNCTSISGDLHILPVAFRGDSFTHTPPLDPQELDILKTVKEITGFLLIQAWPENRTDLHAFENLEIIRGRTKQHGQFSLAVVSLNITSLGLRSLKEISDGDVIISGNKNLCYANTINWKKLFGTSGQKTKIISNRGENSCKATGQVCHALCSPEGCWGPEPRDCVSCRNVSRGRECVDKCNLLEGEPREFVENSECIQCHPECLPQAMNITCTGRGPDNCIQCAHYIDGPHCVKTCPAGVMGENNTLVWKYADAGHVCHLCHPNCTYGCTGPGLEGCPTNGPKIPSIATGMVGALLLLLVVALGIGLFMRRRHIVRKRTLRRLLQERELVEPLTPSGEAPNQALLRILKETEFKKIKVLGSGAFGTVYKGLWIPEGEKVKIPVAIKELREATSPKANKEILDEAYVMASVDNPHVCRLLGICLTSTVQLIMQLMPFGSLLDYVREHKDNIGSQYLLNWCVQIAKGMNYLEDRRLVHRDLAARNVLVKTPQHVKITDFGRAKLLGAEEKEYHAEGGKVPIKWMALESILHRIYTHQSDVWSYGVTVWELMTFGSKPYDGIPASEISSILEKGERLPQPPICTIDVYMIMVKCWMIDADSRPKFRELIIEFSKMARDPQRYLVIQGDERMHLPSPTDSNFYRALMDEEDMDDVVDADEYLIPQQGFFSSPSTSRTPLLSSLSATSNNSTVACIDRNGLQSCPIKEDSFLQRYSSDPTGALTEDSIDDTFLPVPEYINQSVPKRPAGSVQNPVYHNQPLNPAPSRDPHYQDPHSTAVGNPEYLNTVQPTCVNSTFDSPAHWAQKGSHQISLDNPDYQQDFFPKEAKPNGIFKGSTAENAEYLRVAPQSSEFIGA
Procedure, shortened: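 Kinase reactions proceed at 25° C. to 10%–20% conversion of total peptide, are terminated with 35 mM EDTA, and the phosphopeptide is resolved from substrate by electrophoretic mobility shift. Apparent IC50 values come from plotting percent activity against log compound concentration.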

[1] = tested on: phosphorylation of EGFR (Tyr1068) in NCI-H1975 cell line that harbors the EGFR L858R T790M mutations; assay: NCI-H1975 pEGFR AlphaLISA assay; type: cell-based; conditions: 4-5 hours incubation, read-out: Ext pEGFR H1975
Procedure, shortened: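 NCI-H1975 cells (EGFR L858R/T790M) seeded overnight, then treated with compound for 4-5 h at 37 °C/5% CO2. After lysis, p-EGFR (Tyr1068) quantified by AlphaLISA SureFire Ultra with acceptor then donor beads; IC50 fitted from percent inhibition versus log concentration.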

[2] = inhibition of phosphorylation of mutant EGFR in NCI-H1975 cells
[3] = Homo sapiens, NCI-H1975, inhibition of phosphorylation of mutant EGFR in NCI-H1975 cells

Row | Structure (SMILES) | IC50 (EGFR (L858R T790M C797S)) | IC50 [1, 2] | IC50 [1, 3]
1 | [2H]C([2H])([2H])O[C@@H]1CCN(c2nccc(Nc3cc4c(C(C)C)ncc(N5C[C@H](CS(C)(=O)=O)[C@H]5C)c4cn3)n2)C[C@@H]1F (single isomer, unassigned) [Compound 162, N-{2-[(3R,4S)-3-fluoro-4-(^2H3)methoxypiperidin-1-yl]pyrimidin-4-yl}-8-[(2R,3S)-3-(methanesulfonylmethyl)-2-methylazetidin-1-yl]-5-(propan-2-yl)-2,6-naphthyridin-3-amine or N-{2-[(3S,4R)-3-fluoro-4-(^2H3)methoxypiperidin-1-yl]pyrimidin-4-yl}-8-[(2R,3S)-3-(methanesulfonylmethyl)-2-methylazetidin-1-yl]-5-(propan-2-yl)-2,6-naphthyridin-3-amine] | ≤ 0.015 µM | ≤ 0.01 µM | –
2 | CC(CF)c1cnc(N2CC(CS(C)(=O)=O)C2)c2cnc(Nc3ccnc(N4CC[C@@H](O)[C@@](C)(F)C4)n3)cc12 (single isomer, unassigned) [Compound 163] | ≤ 0.015 µM | – | 0.0301 to 0.05 µM
3 | CO[C@H]1CCN(c2nccc(Nc3cc4c(C(C)C)ccc(N5C[C@H](CS(C)(=O)=O)[C@H]5C)c4cn3)n2)C[C@H]1C#N (single isomer, unassigned) [Compound 164, (3S,4S)-1-[4-({8-[(2R,3S)-3-(methanesulfonylmethyl)-2-methylazetidin-1-yl]-5-(propan-2-yl)isoquinolin-3-yl}amino)pyrimidin-2-yl]-4-methoxypiperidine-3-carbonitrile or (3R,4R)-1-[4-({8-[(2R,3S)-3-(methanesulfonylmethyl)-2-methylazetidin-1-yl]-5-(propan-2-yl)isoquinolin-3-yl}amino)pyrimidin-2-yl]-4-methoxypiperidine-3-carbonitrile] | 0.0151 to 0.02 µM | ≤ 0.01 µM | –
4 | CO[C@H]1CCN(c2nccc(Nc3cc4c(C(C)C)ccc(N5C[C@H](CS(C)(=O)=O)[C@H]5C)c4cn3)n2)C[C@H]1C#N (single isomer, unassigned) [Compound 165, (3R,4R)-1-[4-({8-[(2R,3S)-3-(methanesulfonylmethyl)-2-methylazetidin-1-yl]-5-(propan-2-yl)isoquinolin-3-yl}amino)pyrimidin-2-yl-4-methoxypiperidine-3-carbonitrile or (3S,4S)-1-[4-({8-[(2R,3S)-3-(methanesulfonylmethyl)-2-methylazetidin-1-yl]-5-(propan-2-yl)isoquinolin-3-yl}amino)pyrimidin-2-yl]-4-methoxypiperidine-3-carbonitrile] | ≤ 0.015 µM | 0.0201 to 0.03 µM | –
5 | CO[C@@H]1CCN(c2nccc(Nc3cc4c(C(C)C)ccc(N5C[C@H](CS(C)(=O)=O)[C@H]5C)c4cn3)n2)C[C@H]1C#N (single isomer, unassigned) [Compound 166, (3S,4R)-1-[4-({8-[(2R,3S)-3-(methanesulfonylmethyl)-2-methylazetidin-1-yl]-5-(propan-2-yl)isoquinolin-3-yl}amino)pyrimidin-2-yl]-4-methoxypiperidine-3-carbonitrile or (3R,4S)-1-[4-({8-[(2R,3S)-3-(methanesulfonylmethyl)-2-methylazetidin-1-yl]-5-(propan-2-yl)isoquinolin-3-yl}amino)pyrimidin-2-yl]-4-methoxypiperidine-3-carbonitrile] | 0.0301 to 0.1 µM | – | 0.0301 to 0.05 µM
6 | CO[C@H]1CCN(c2nccc(Nc3cc4c(C(C)C)ccc(N5C[C@H](CS(C)(=O)=O)[C@H]5C)c4cn3)n2)C[C@@H]1CO (single isomer, unassigned) [Compound 172, [(3R,4S)-1-[4-({8-[(2R,3S)-3-(methanesulfonylmethyl)-2-methylazetidin-1-yl]-5-(propan-2-yl)isoquinolin-3-yl}amino)pyrimidin-2-yl]-4-methoxypiperidin-3-yl]methanol or [(3S,4R)-1-[4-({8-[(2R,3S)-3-(methanesulfonylmethyl)-2-methylazetidin-1-yl]-5-(propan-2-yl)isoquinolin-3-yl}amino)pyrimidin-2-yl]-4-methoxypiperidin-3-yl]methanol] | ≤ 0.015 µM | – | 0.0201 to 0.03 µM
7 | CO[C@@H]1CCN(c2nccc(Nc3cc4c(C(C)C)ccc(N5C[C@H](CS(C)(=O)=O)[C@H]5C)c4cn3)n2)C[C@@H]1CO (single isomer, unassigned) [Compound 173, [(3R,4R)-1-[4-({8-[(2R,3S)-3-(methanesulfonylmethyl)-2-methylazetidin-1-yl]-5-(propan-2-yl)isoquinolin-3-yl}amino)pyrimidin-2-yl]-4-methoxypiperidin-3-yl]methanol or [(3S,4S)-1-[4-({8-[(2R,3S)-3-(methanesulfonylmethyl)-2-methylazetidin-1-yl]-5-(propan-2-yl)isoquinolin-3-yl}amino)pyrimidin-2-yl]-4-methoxypiperidin-3-yl]methanol] | 0.0151 to 0.02 µM | – | 0.0201 to 0.03 µM
8 | CO[C@@H]1CCN(c2nccc(Nc3cc4c(C(C)C)ccc(N5C[C@H](CS(C)(=O)=O)[C@H]5C)c4cn3)n2)C[C@H]1CO (single isomer, unassigned) [Compound 174, [(3S,4R)-1-[4-({8-[(2R,3S)-3-(methanesulfonylmethyl)-2-methylazetidin-1-yl]-5-(propan-2-yl)isoquinolin-3-yl}amino)pyrimidin-2-yl]-4-methoxypiperidin-3-yl]methanol or [(3R,4S)-1-[4-({8-[(2R,3S)-3-(methanesulfonylmethyl)-2-methylazetidin-1-yl]-5-(propan-2-yl)isoquinolin-3-yl}amino)pyrimidin-2-yl]-4-methoxypiperidin-3-yl]methanol] | ≤ 0.015 µM | – | 0.0101 to 0.02 µM

Continued, values first:

Row | IC50 (EGFR (L858R T790M C797S)) | IC50 [1, 2] | IC50 [1, 3] | Structure (SMILES)
9 | ≤ 0.015 µM | – | ≤ 0.01 µM | CCS(=O)(=O)C[C@H]1CN(c2ccc(C(C)C)c3cc(Nc4ccnc(N5CC[C@@H](OC)[C@@H](O)C5)n4)ncc23)[C@@H]1C (single isomer, unassigned) [Compound 176, (3S,4R)-1-[4-({8-[(2R,3S)-3-[(ethanesulfonyl)methyl]-2-methylazetidin-1-yl]-5-(propan-2-yl)isoquinolin-3-yl}amino)pyrimidin-2-yl]-4-methoxypiperidin-3-ol, or (3R,4S)-1-[4-({8-[(2R,3S)-3-[(ethanesulfonyl)methyl]-2-methylazetidin-1-yl]-5-(propan-2-yl)isoquinolin-3-yl}amino)pyrimidin-2-yl]-4-methoxypiperidin-3-ol]
10 | ≤ 0.015 µM | – | ≤ 0.01 µM | CCS(=O)(=O)C[C@H]1CN(c2ccc(C(C)C)c3cc(Nc4ccnc(N5CC[C@H](OC)[C@@H](O)C5)n4)ncc23)[C@@H]1C (single isomer, unassigned) [Compound 177, (3S,4S)-1-(4-(8-((2R,3S)-3-(ethylsulfonylmethyl)-2-methylazetidin-1-yl)-5-isopropylisoquinolin-3-ylamino)pyrimidin-2-yl)-4-methoxypiperidin-3-ol or (3R,4R)-1-(4-(8-((2R,3S)-3-(ethylsulfonylmethyl)-2-methylazetidin-1-yl)-5-isopropylisoquinolin-3-ylamino)pyrimidin-2-yl)-4-methoxypiperidin-3-ol]
11 | ≤ 0.015 µM | – | ≤ 0.01 µM | CCS(=O)(=O)C[C@H]1CN(c2ncc(C(C)C)c3cc(Nc4ccnc(N5CC[C@@H](OC)[C@@H](O)C5)n4)ncc23)[C@@H]1C (single isomer, unassigned) [Compound 178]
12 | ≤ 0.015 µM | – | ≤ 0.01 µM | CCS(=O)(=O)C[C@H]1CN(c2ncc(C(C)C)c3cc(Nc4ccnc(N5CC[C@H](OC)[C@@H](O)C5)n4)ncc23)[C@@H]1C (single isomer, unassigned) [Compound 179]
13 | ≤ 0.015 µM | – | 0.0101 to 0.02 µM | CC(C)c1ccc(N2CC(CS(C)(=O)=O)C2)c2cnc(Nc3ccnc(N4CCC5(OCCO5)[C@H](F)C4)n3)cc12 (single isomer, unassigned) [Compound 180, N-{2-[(6R)-6-fluoro-1,4-dioxa-8-azaspiro[4.5]decan-8-yl]pyrimidin-4-yl}-8-[3-(methanesulfonylmethyl)azetidin-1-yl]-5-(propan-2-yl)isoquinolin-3-amine or N-{2-[(6S)-6-fluoro-1,4-dioxa-8-azaspiro[4.5]decan-8-yl]pyrimidin-4-yl}-8-[3-(methanesulfonylmethyl)azetidin-1-yl]-5-(propan-2-yl)isoquinolin-3-amine]
14 | ≤ 0.015 µM | 0.0101 to 0.02 µM | – | CC(C)c1ccc(N2CC(CS(C)(=O)=O)C2)c2cnc(Nc3ccnc(N4CCC5(OCCO5)[C@H](F)C4)n3)cc12 (single isomer, unassigned) [Compound 181, N-{2-[(6R)-6-fluoro-1,4-dioxa-8-azaspiro[4.5]decan-8-yl]pyrimidin-4-yl}-8-[3-(methanesulfonylmethyl)azetidin-1-yl]-5-(propan-2-yl)isoquinolin-3-amine or N-{2-[(6S)-6-fluoro-1,4-dioxa-8-azaspiro[4.5]decan-8-yl]pyrimidin-4-yl}-8-[3-(methanesulfonylmethyl)azetidin-1-yl]-5-(propan-2-yl)isoquinolin-3-amine]
15 | ≤ 0.015 µM | – | ≤ 0.01 µM | CCS(=O)(=O)CC1CN(c2ccc(C(C)C)c3cc(Nc4ccnc(N5C[C@@H](F)[C@@H](O)C(C)(C)C5)n4)ncc23)C1 (single isomer, unassigned) [Compound 182, (4S,5R)-1-{4-[(8-{3-[(ethanesulfonyl)methyl]azetidin-1-yl}-5-(propan-2-yl)isoquinolin-3-yl)amino]pyrimidin-2-yl}-5-fluoro-3,3-dimethylpiperidin-4-ol or (4R,5S)-1-{4-[(8-{3-[(ethanesulfonyl)methyl]azetidin-1-yl}-5-(propan-2-yl)isoquinolin-3-yl)amino]pyrimidin-2-yl}-5-fluoro-3,3-dimethylpiperidin-4-ol]
